Experimental data published in US10463670B2, “Use of non-peptide NK1 antagonists in a predetermined dose for the treatment of cancer” (SERVICIO ANDALUZ DE SALUD, priority 2013, dated 2019).
Where a SMILES comes first, the peptide text is derived from it. Bridges are numbered along the chain shown (N, C = ends). [ ]: non-standard residue; d: D form. The star is where a group is joined. NH(β-GlcNAc) = CC(=O)N[C@@H]1[C@@H](O)[C@H](O)[C@@H](CO)O[C@H]1N*; Dap = NC[C@H](N)C(=O)O

Legend:
cell proliferation = conditions: Singh et al. 2000; Bigioni et al. 2005; cited from earlier work
[1] = system: human lung cancer; reference HCC-44; test: Lung cancer HCC-44 tumours in nude mice, Cisplatin alone or with Aprepitant; assay type: in vivo; conditions: Cisplatin 8 mg/kg on days 1 and 7, alone
Method: Immunocompromised female mice, 5-6 weeks of age were used, nu/nu Balb/c nude mice, provided by Harlan Iberica Barcelona (Spain). They were kept at 24° C. and in sterile conditions with food and water “ad libitum”. […] The tumour size was measured and the mice were evaluated for their state of health and weight daily. […] One of the groups was treated with 200 μl of placebo (control group) and the eight remaining groups with doses of 10 (group 1), 20 (group 2), 30 (group 3), 40 (group 4), 50 (group 5), 60 (group 6), 70 (group 7) and 80 (group 8) mg per kilogram of weight and day of the NK1 receptor antagonist Aprepitant. 3 animals were treated per group, during 28 days. All the mice were sacrificed at the end of the experiment. […] Immunocompromised female mice, 5-6 weeks of age were used, in the same conditions as explained in example 1. […] The tumour size was measured and the mice were evaluated for their state of health and weight daily. […] One of the groups was treated with Cisplatin at 8 mg per kilogram of weight at single doses on days 1 and 7 of the experiment (control group) and the eight remaining groups with the same treatment as the control group and the doses of 1 (group 1), 3 (group 2), 5 (group 3), 6 (group 4), 7 (group 5), 8 (group 6), 9 (group 7) and 10 (group 8) mg per kilogram of weight and day, of the NK1 receptor antagonist Aprepitant. […]

[2] = system: human glioma; reference GAMG; test: Glioma GAMG tumours in nude mice, Cisplatin alone or with Aprepitant; assay type: in vivo; conditions: Cisplatin 8 mg/kg on days 1 and 7, alone
Method: (§1) Immunocompromised female mice, 5-6 weeks of age were used, nu/nu Balb/c nude mice, provided by Harlan Iberica Barcelona (Spain). They were kept at 24° C. and in sterile conditions with food and water “ad libitum”. […] The tumour size was measured and the mice were evaluated for their state of health and weight daily. […] One of the groups was treated with 200 μl of placebo (control group) and the eight remaining groups with doses of 10 (group 1), 20 (group 2), 30 (group 3), 40 (group 4), 50 (group 5), 60 (group 6), 70 (group 7) and 80 (group 8) mg per kilogram of weight and day of the NK1 receptor antagonist Aprepitant. 3 animals were treated per group, during 28 days. All the mice were sacrificed at the end of the experiment. […] Immunocompromised female mice, 5-6 weeks of age were used, in the same conditions as explained in example 1. […] The tumour size was measured and the mice were evaluated for their state of health and weight daily. […] One of the groups was treated with two single doses of Cisplatin, of 8 mg per kilogram of weight, on days 1 and 7 of the experiment (control group). The eight remaining groups were treated with the same treatment as the control group and the doses of 1 (group 1), 3 (group 2), 5 (group 3), 6 (group 4), 7 (group 5), 8 (group 6), 9 (group 7) and 10 (group 8) mg per kilogram of weight and day, of the NK1 receptor antagonist Aprepitant. […]

[3] = system: human fibrosarcoma; reference HT-1080; test: Fibrosarcoma HT-1080 tumours in nude mice, Cisplatin alone or with Aprepitant; assay type: in vivo; conditions: Cisplatin 8 mg/kg on days 1 and 7, alone
Method: as §1

[4] = system: human melanoma; reference MEL-HO; test: Melanoma MEL-HO tumours in nude mice, Cisplatin alone or with Aprepitant; assay type: in vivo; conditions: Cisplatin 8 mg/kg on days 1 and 7, alone
Method: as §1

[5] = system: human neuroblastoma; reference KELLY; test: Neuroblastoma KELLY tumours in nude mice, Cisplatin alone or with Aprepitant; assay type: in vivo; conditions: Cisplatin 8 mg/kg on days 1 and 7, alone
Method: as §1

[6] = system: human lymphoma; reference BC-1; test: Lymphoma BC-1 tumours in nude mice, Cisplatin alone or with Aprepitant; assay type: in vivo; conditions: Cisplatin 8 mg/kg on days 1 and 7, alone
Method: as §1

Question: Which Blocking cell proliferation (cell proliferation) does the source give for `CC(=O)NC1(c2ccccc2)CCN(CC[C@H](CN(C)C(=O)c2ccccc2)c2ccc(Cl)c(Cl)c2)CC1` [SR 48968] here?
Answer: efficacy thereof in blocking cell proliferation

Question: For `Cc1ccc(CC(=O)N(C)[C@H](Cc2ccc3ccccc3c2)C(=O)N[C@@H]2CCCC[C@@H]2NC(=O)c2c[nH]c3ccccc23)cc1` [MEN 11467], which Blocking cell proliferation (cell proliferation) is on record?
Answer: efficacy thereof in blocking cell proliferation

Question: For `CC(=O)N[C@@H]1[C@@H](O)[C@H](O)[C@@H](CO)O[C@H]1NC(=O)C[C@@H]1NC(=O)[C@H](CC(C)C)NC(=O)[C@@H]2CNC(=O)C[C@H](NC1=O)C(=O)N[C@@H](Cc1c[nH]c3ccccc13)C(=O)N[C@@H](Cc1ccccc1)C(=O)N2` [MEN 11420, Nepadutant] (cyclo(D(NH(β-GlcNAc))DWF[Dap]L); lactam 2-5), which Blocking cell proliferation (cell proliferation) is on record?
Answer: efficacy thereof in blocking cell proliferation

Question: Which results are given for `N.N.[Cl][Pt][Cl]` [Cisplatin]?
Answer: Tumour size (mean volume of the tumour) ([1]; 7 days): 105 ± 4 cubic millimeters; Tumour size (mean volume of the tumour) ([1]; 14 days): 70 ± 7 cubic millimeters; Tumour size (mean volume of the tumour) ([2]; 7 days): 115 ± 7 cubic millimeters; Tumour size (mean volume of the tumour) ([2]; 14 days): 85 ± 6 cubic millimeters; Tumour size (mean volume of the tumour) ([3]; 7 days): 95 ± 5 cubic millimeters; Tumour size (mean volume of the tumour) ([3]; 14 days): 65 ± 5 cubic millimeters; Tumour size (mean volume of the tumour) ([4]; 7 days): 105 ± 6 cubic millimeters; Tumour size (mean volume of the tumour) ([4]; 14 days): 75 ± 6 cubic millimeters; Tumour size (mean volume of the tumour) ([5]; 7 days): 95 ± 8 cubic millimeters; Tumour size (mean volume of the tumour) ([5]; 14 days): 60 ± 8 cubic millimeters; Tumour size (mean volume of the tumour) ([6]; 7 days): 85 ± 6 cubic millimeters; Tumour size (mean volume of the tumour) ([6]; 14 days): 50 ± 3 cubic millimeters
